Assay results: patent US8936939B2, “Hormone responsive tissue culture system and uses thereof” (Whitehead Institute for Biomedical Research, priority 2004, dated 2015)

Tests used:
BPEC cells = experiment: In vitro growth inhibition of BPEC cells by estrogen antagonist; assay type: cell-based, human; details: data not shown
Source text: (§1) Expression of CK18 and BER-Ep4 both confirm the adenocarcinoma features and exclude a squamous tumor. E-cadherin excludes a mesenchymal tumor. BPLER xenografts express progesterone receptor, which is consistent with the notion that BPLER xenografts are hormone-responsive. This was confirmed by experiments in which estrogen-progesterone treatment of mice increased subject tumor size approximately two-fold compared to untreated mice. […] Similar tumor xenografts from cells cultured in the MEGM media was negative for progesterone receptor expression and the in vitro growth inhibition of the cells with ICI 182,780 was less than 20% (data not shown).

BPLE cells = experiment: In vitro growth inhibition of BPLE cells by estrogen antagonist; assay type: cell-based, human; details: data not shown
Source text: as §1

[1] = test system: cells cultured in the MEGM media; experiment: In vitro growth inhibition of cells cultured in the MEGM media by estrogen antagonist; assay type: cell-based, human; details: data not shown
Source text: as §1

BPE cells = experiment: In vitro growth inhibition of BPE cells by estrogen antagonist; assay type: cell-based, human; details: data not shown
Source text: as §1

BPLER xenografts = experiment: Hormone response of BPLER xenograft tumors in mice; assay type: in vivo; details: estrogen treated animals vs control animals
Source text: In one respect, the histology of tumors arising from BPLER is very similar, if not identical to human ductal breast carcinoma. There is prominent luminal marker CK18 expression in BPLER cells and tumors. There is also prominent expression of E-cadherin, a marker indicating polarization of cells. Morphology wise, BPLER xenografts form glandular structures similar to those seen in human tumors. BPLER xenografts into mammary fat pads are invasive into adjacent skeletal muscle, and cause a desmoplastic reaction. BPLER xenografts also express progesterone receptors based on immunohistological staining of xenograft tumor samples. In addition, BPLER tumor sizes respond to estrogen treatment, in that xenograft tumors weighed about 70-100% more in estrogen treated animals than in control animals. BPLER tumors spread within the breast tissue of mice, and the multifocal growth is consistent with lymphovascular invasion and spread of tumors.
Subcutaneous tumorigenicity was tested in 6-8 week old immunocompromised athymic nude mice by injecting about 1×10^6 cells resuspended in 100 μl of 50% matrigel (EHSS). Nude mice were irradiated with 400 rad 12 hr prior to injections. Orthotopic tumorigenicity was tested by injecting about 1×10^6 cells into the mammary fat pad of Nod/Skid mice. All mice were sacrificed on day 70. […]

Row | Molecule | growth inhibition (BPEC cells) [%] | growth inhibition (BPLE cells) [%] | in vitro growth inhibition [1] | growth inhibition (BPE cells) [%] | xenograft tumor weight increase in treated versus control animals (BPLER xenografts)
1 | C[C@]12CC[C@@H]3c4ccc(O)cc4C[C@@H](CCCCCCCCC[S+]([O-])CCCC(F)(F)C(F)(F)F)[C@H]3[C@@H]1CC[C@@H]2O (some centres unmarked) [ICI 182,780] | > 80 | > 80 | less than 20% | > 80 | –
2 | estrogen | – | – | – | – | 70-100%
